Results from patent publication US20240279215A1 (Cytokinetics, Incorporated, priority 2022, published 2024).

Biological target: human NAMPT (Homo sapiens (Human), UniProt P43490)
Test: NMN fluorescence biochemical assay (human recombinant NAMPT enzyme assay)
Description: Compounds described herein were assayed for their ability to stimulate the synthesis of nicotinamide mononucleotide (NMN) by the enzyme NAMPT. The human recombinant enzyme assay measures the activation of the enzyme activity by compounds using recombinant enzyme and substrates in a buffered cell-free system. The assay conditions closely mimic cellular environments. Dose responses were measured using an assay to detect the formation of nicotinamide mono-nucleotide. All experiments were performed in the 384-well format. Generally, 0.5 μL of DMSO containing varying concentrations of the test compound was mixed with 10 μL of the enzyme reagent solution. Enzyme reactions were initiated with the addition of […] containing the substrates. The final assay conditions were as follows: 6 nM human NAMPT, 2.5 mM ATP, 20 μM PRPP and 150 μM nicotinamide in 50 mM HEPES, pH 7.2, 1 mM DTT, 1 mM CHAPS 50 mM NaCl, 100 mM MgCl2. Following an incubation of 60 min at ambient temperature, 10 μL of 20% acetophenone in DMSO was added, followed by 10 μL of 2 M KOH and 40 μL of formic acid. The plates were read for fluorescence (Excitation/Emission=355 nm/460 nm) using an EnVision plate reader after 40 mins of incubation at ambient temperature.

human NAMPT, sequence (P43490 whole entry): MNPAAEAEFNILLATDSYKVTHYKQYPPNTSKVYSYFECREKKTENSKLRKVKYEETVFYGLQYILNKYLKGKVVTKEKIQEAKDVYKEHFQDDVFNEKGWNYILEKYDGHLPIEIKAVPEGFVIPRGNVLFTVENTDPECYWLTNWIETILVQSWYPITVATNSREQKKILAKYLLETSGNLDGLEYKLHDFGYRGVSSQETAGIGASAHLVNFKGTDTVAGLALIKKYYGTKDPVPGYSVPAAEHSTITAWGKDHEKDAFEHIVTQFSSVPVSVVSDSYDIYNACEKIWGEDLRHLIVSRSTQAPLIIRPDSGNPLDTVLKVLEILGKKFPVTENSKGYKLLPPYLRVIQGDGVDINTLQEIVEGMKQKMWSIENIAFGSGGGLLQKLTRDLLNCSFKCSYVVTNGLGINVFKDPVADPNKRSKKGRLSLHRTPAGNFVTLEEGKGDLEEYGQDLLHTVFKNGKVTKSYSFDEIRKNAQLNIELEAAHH

Structure (SMILES) | AC1.4 Human | EC50
CC(C)C(=O)N1CCC(Cc2ccc(NC(=O)OCc3cnco3)cc2)CC1 [Compound 35, oxazol-5-ylmethyl (4-((1-isobutyrylpiperidin-4-yl)methyl)phenyl)carbamate] | 0.39 µM | 37.9 µM
C[C@H](NC(=O)c1ccc(F)cc1)c1ccc(NC(=O)OCc2cnco2)cc1 [Compound 39, 1,3-oxazol-5-ylmethyl N-{4-[(1S)-1-[(4-fluorophenyl)formamido]ethyl]phenyl}carbamate] | 0.43 µM | 19.2 µM
COC1CCN(C(=O)N(C)Cc2ccc(NC(=O)OCc3ccc(Cl)cc3)cc2)CC1 [Compound 42, 4-chlorobenzyl (4-((4-methoxy-N-methylpiperidine-1-carboxamido)methyl)phenyl)carbamate] | 0.44 µM | 5.66 µM
COc1ccc(COC(=O)Nc2ccc([C@@H](C)C(=O)N3CCC[C@H]3CO)cc2)cc1 [Compound 47] | 0.49 µM | 9.61 µM
O=C(Nc1ccc(CC2CCN(C(=O)C3COC3)CC2)cc1)OCc1cnco1 [Compound 48, oxazol-5-ylmethyl (4-((1-(oxetane-3-carbonyl)piperidin-4-yl)methyl)phenyl)carbamate] | 0.49 µM | 31 µM
Cc1ccc(Cc2ccc(NC(=O)OCc3cnco3)cc2)cn1 [Compound 51, oxazol-5-ylmethyl (4-((6-methylpyridin-3-yl)methyl)phenyl)carbamate] | 0.50 µM | 40.3 µM

Compounds with a lower EC50, results first:

AC1.4 Human | EC50 | Structure (SMILES)
0.45 µM | 4.19 µM | C[C@H](NC(=O)c1ccncc1F)c1ccc(NC(=O)OCc2ccc(Cl)cc2)cc1 [Compound 44, (4-chlorophenyl)methyl N-{4-[(1S)-1-[(3-fluoropyridin-4-yl)formamido]ethyl]phenyl}carbamate]
0.41 µM | 3.67 µM | Cc1ccc(C(=O)NCc2ccc(NC(=O)OCc3ccncc3)cc2)cn1 [Compound 37, pyridin-4-ylmethyl (4-((6-methylnicotinamido)methyl)phenyl)carbamate]
0.44 µM | 3.48 µM | CN(Cc1ccc(NC(=O)OCc2ccc(Cl)cc2)cc1)C(=O)c1cn[nH]c1 [Compound 41, (4-chlorophenyl)methyl N-{4-[(N-methyl-1-1H-pyrazol-4-ylformamido)methyl]phenyl}carbamate]
0.48 µM | 2.58 µM | Cc1noc(C(=O)N[C@@H](C)c2ccc(NC(=O)OCc3ccc(Cl)cc3)cc2)c1C [Compound 46, 4-chlorobenzyl (S)-(4-(1-(3,4-dimethylisoxazole-5-carboxamido)ethyl)phenyl)carbamate]
0.50 µM | 2.02 µM | CN(Cc1ccc(NC(=O)OCc2ccc(Cl)cc2)cc1)C(=O)c1cc[nH]n1 [Compound 49, (4-chlorophenyl)methyl N-{4-[(N-methyl-1-1H-pyrazol-3-ylformamido)methyl]phenyl}carbamate]
0.46 µM | 1.88 µM | Cc1cnn(C)c1C(=O)NCc1ccc(NC(=O)OCc2ccc(Cl)cc2)cc1 [Compound 45, (4-chlorophenyl)methyl N-(4-{[(2,4-dimethylpyrazol-3-yl)formamido]methyl}phenyl)carbamate]
0.42 µM | 1.22 µM | CS(=O)(=O)N1CCC(Cc2ccc(NC(=O)OCc3ccc(Cl)cc3)cc2)CC1 [Compound 38, 4-chlorobenzyl (4-((1-(methylsulfonyl)piperidin-4-yl)methyl)phenyl)carbamate]
0.40 µM | 1 µM | CN(Cc1ccc(NC(=O)OCc2ccc(Cl)cc2)cc1)C(=O)c1ccncc1F [Compound 36, (4-chlorophenyl)methyl N-(4-{[1-(3-fluoropyridin-4-yl)-N-methylformamido]methyl}phenyl)carbamate]
0.50 µM | 0.89 µM | CN(Cc1ccc(NC(=O)OCc2ccc(Cl)cc2)cc1)C(=O)c1ccnn1C [Compound 50, (4-chlorophenyl)methyl N-(4-{[N-methyl-1-(2-methylpyrazol-3-yl)formamido]methyl}phenyl)carbamate]
